Reference: patent US9493485B2, “Spirocyclic dihydro-thiazine and dihydro-oxazine BACE inhibitors, and compositions and uses thereof” (Imago Pharmaceuticals, Inc., priority 2012, dated 2016)
Where two headings read alike, the source gives them in different places.

Tests used:
[1] = biological target: T1, BACE1 (Homo sapiens (Human), UniProt P56817); experiment: BACE1 AlphaScreen assay (displacement of biotinylated BACE1 binding site probe); conditions: read-out: BACE1 AS IC50
Protocol: (§1) BACE1 activity can be assessed in an AlphaScreen® assay. Compounds to be assessed (e.g. compounds as described in the above examples) are serially diluted 1:4 in DMSO, then plated by diluting 10 μL of compound with 40 μl of assay buffer (1×PBS, 0.01% Tween-20, pH 7.0, 0.05% BSA). The diluted compound is transferred (4 μL per well) to a 386 well assay plate and 4 μL of BACE1 enzyme ([…]) is added and incubated for 15 minutes. This assay uses a probe that is a BACE1 binding sight ligand linked to biotin, which can be displaced by test compound dependent on compound binding affinity. This of biotinylated probe (4 μL) is added and incubated for 1 hour, followed with 4 μL of donor and acceptor bead mixture and incubated for 2 hours. The fluorescent signal is read on a plate reader and the value as a function of compound concentration is used to determine the IC50. Compounds are also assessed for BACE1 and Cathepsin D activity using an FP Assay. Compounds to be assessed (e.g. compounds as described in the above examples) are serially diluted 1:3 with DMSO and each concentration point is transferred to a 96 well plate, 6 μL per well, followed by addition of 194 μL of assay buffer (100 mM sodium acetate, pH 4.5 with 0.001% Tween-20). A 10 μL compound sample from this plate is transferred to a well of a 384 well plate and combined with 10 μL per well of BACE1 enzyme (0.3 nM in assay buffer) or Cathepsin D enzyme (1.8 nM in assay buffer) and the plate is incubated at room temperature for 30 minutes.

[2] = test system: BACE1 inhibition in HEKp293 cells transfected with APP751 gene (SWE293); experiment: SWE293 cellular assay: reduction of Aβ peptide production, ELISA; assay type: cell-based; conditions: Homo sapiens, read-out: SWE293 ED50
Protocol: BACE1 inhibition is also assessed in a cellular assay. HEKp293 cells transfected with APP751 gene (SWE293, American Type Culture Collection CRL-1563) are used to assess compounds for reduction in levels of Aβ peptide production. SWE293 cell medium is DMEM supplemented with 10% fetal bovine serum and 2 mM L-glutamine, 1.0 mM sodium pyruvate, 25 mM Hepes Buffer, 0.4 mg/mL geneticin (G418, Gibco BRL 860-181IIJ). Cells are maintained diluting 1:10 for 4 days in T-150 flask and 35 mL of cell media. For plating, cells are rinsed with 5 mL of 1×PBS, trypsinized with 4 mL of 0.05% Tripsin for 1 minute, and 12 mL of cell media is added. These are centrifuged at 1000 rpm for 4 minutes and the media aspirated, then 8 mL of media per flask is added. Based on cell count, appropriate amounts of cell and cell media are combined, and 180 μl per well are plated (96 well) and the plates are incubated overnight at 37° C., 5% CO2. Compounds to be tested are serially diluted 1:3 in DMSO and twice in media (without G418) in V-bottom plates and incubated at room temperature. Plated cells are washed with media, 3×50 μL per well and 17 μL per well of appropriate dilution of compound is added. Plates are incubated for 2 hours, and the wash steps, compound addition and incubation are repeated. Sample is transferred to capture plate (prepared with 266 antibody, see e.g. Johnson-Wood et al., PNAS February 1997, 94: 1550-1555), along with a standard curve of Aβ-40. ELISA assay is used to assess Aβ levels, washing with TBS, 0.05% Tween20 pH 7.5, then adding 1.3 mg/mL 3D6 antibody 1:900 in specimen diluents with thimericol is added (100 μl per well) and incubated for 1 hour. Wash step is repeated and Streptavidin-AP diluted 1:1000 in specimen diluents with thimerisol is added (100 μL per well) and incubated for 1 hour. Wash step is repeated and fluorescent substrate is added, 100 μL per well and incubated for 10 minutes followed by reading the fluorescent signal on a plate reader.

[3] = biological target: Cathepsin D (Homo sapiens (Human), UniProt P07339); experiment: Cathepsin D FP assay; assay type: biochemical; conditions: pH 4.5, read-out: CatD FP IC50
Protocol: as §1

[4] = biological target: T1, BACE1; experiment: BACE1 FP assay; assay type: biochemical; conditions: pH 4.5
Protocol: as §1

[5] = dose at which Aβ level is reduced by 50%, HEKp293 SWE293 cells

Chain of Cathepsin D (P07339 65-412, species assumed): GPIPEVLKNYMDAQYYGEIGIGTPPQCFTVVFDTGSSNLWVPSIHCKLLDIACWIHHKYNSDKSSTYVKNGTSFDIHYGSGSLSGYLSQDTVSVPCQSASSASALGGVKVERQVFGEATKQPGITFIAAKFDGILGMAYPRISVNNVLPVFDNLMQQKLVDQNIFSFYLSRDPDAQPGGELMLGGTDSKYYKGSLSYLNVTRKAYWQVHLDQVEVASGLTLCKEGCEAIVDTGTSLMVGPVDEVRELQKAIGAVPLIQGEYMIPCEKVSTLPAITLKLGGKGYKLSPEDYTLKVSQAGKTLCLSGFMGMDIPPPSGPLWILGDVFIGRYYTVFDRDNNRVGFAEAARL
T1 sequence (P56817 46-501): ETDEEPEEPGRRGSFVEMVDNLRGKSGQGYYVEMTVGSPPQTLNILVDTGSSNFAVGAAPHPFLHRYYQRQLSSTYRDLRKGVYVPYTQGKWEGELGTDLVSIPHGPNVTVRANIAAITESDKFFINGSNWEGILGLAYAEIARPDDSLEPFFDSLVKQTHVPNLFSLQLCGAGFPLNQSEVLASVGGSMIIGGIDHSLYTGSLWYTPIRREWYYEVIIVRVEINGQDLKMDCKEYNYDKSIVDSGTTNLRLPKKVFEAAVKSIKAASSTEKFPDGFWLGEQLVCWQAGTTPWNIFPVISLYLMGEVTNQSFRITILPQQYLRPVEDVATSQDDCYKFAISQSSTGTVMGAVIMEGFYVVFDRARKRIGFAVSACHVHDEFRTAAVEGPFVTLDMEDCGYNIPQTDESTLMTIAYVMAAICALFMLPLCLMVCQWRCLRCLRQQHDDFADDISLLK

| Structure (SMILES) | IC50 [1] [nM] | IC50 [3] [nM] | IC50 [4] [nM] | IC50 [2, 5] [nM] | IC50 [2] [nM] |
| --- | --- | --- | --- | --- | --- |
| C[C@@]1(c2cc(NC(=O)c3ccc(C#N)cn3)ccc2F)CC2(CCC2)OC(N)=N1 [Compound 9-130, (S)—N-(3-(6-amino-8-methyl-5-oxa-7-azaspiro[3.5]non-6-en-8-yl)-4-fluorophenyl)-5-cyanopicolinamide] | 6 | > 30000 | 46 | 5.4 | – |
| CC1(c2cc(NC(=O)c3ccc(C#N)cn3)ccc2F)CC2(CCOCC2)OC(N)=N1 (centres unmarked) [Compound 9-139, N-(3-(2-amino-4-methyl-1,9-dioxa-3-azaspiro[5.5]undec-2-en-4-yl)-4-fluorophenyl)-5-cyanopicolinamide] | 9 | > 30000 | 48 | 5 | – |
| C[C@@]1(c2cc(NC(=O)c3ccc(Cl)cn3)ccc2F)CC2(CC2)OC(N)=N1 [Compound 9-154, (S)—N-(3-(5-amino-7-methyl-4-oxa-6-azaspiro[2.5]oct-5-en-7-yl)-4-fluorophenyl)-5-chloropicolinamide] | 7.5 | > 30000 | 113 | 20 | – |
| CC#Cc1cncc(-c2ccc(F)c([C@]3(C)CC4(CCC4)OC(N)=N3)c2)c1 [Compound 8-111, (S)-8-(2-fluoro-5-(5-(prop-1-ynyl)pyridin-3-yl)phenyl)-8-methyl-5-oxa-7-azaspiro[3.5]non-6-en-6-amine] | 88 | 5080 | 3510 | 391 | – |
| CC1(c2cc(NC(=O)c3ccc(F)cn3)ccc2F)CC2(CCOCC2)OC(N)=N1 (centres unmarked) [Compound 9-120, N-(3-(2-amino-4-methyl-1,9-dioxa-3-azaspiro[5.5]undec-2-en-4-yl)-4-fluorophenyl)-5-fluoropicolinamide] | 19 | > 30000 | 282 | 13 | – |
| CC#Cc1cncc(-c2csc(C3(C)CC4(CCC(F)(F)CC4)OC(N)=N3)c2)c1 (centres unmarked) [Compound 8-109, 9,9-difluoro-4-methyl-4-(4-(5-(prop-1-ynyl)pyridin-3-yl)thiophen-2-yl)-1-oxa-3-azaspiro[5.5]undec-2-en-2-amine] | 68 | 6290 | 1160 | 621 | – |
| C[C@@]1(c2cc(NC(=O)c3ccc(Cl)cc3)ccc2F)CC2(CCC2)OC(N)=N1 [Compound 9-141, (S)—N-(3-(6-amino-8-methyl-5-oxa-7-azaspiro[3.5]non-6-en-8-yl)-4-fluorophenyl)-4-chlorobenzamide] | 17.5 | > 30000 | 839 | – | 109 |
| CC#Cc1cncc(-c2csc(C3(C)CC4(CCC4)OC(N)=N3)c2)c1 (centres unmarked) [Compound 8-103, 8-methyl-8-(4-(5-(prop-1-ynyl)pyridin-3-yl)thiophen-2-yl)-5-oxa-7-azaspiro[3.5]non-6-en-6-amine] | 30 | 7920 | 1360 | 582 | – |
| C[C@@]1(c2cc(NC(=O)c3ccc(F)cn3)ccc2F)CC2(CCOCC2)OC(N)=N1 [Compound 9-128, (S)—N-(3-(2-amino-4-methyl-1,9-dioxa-3-azaspiro[5.5]undec-2-en-4-yl)-4-fluorophenyl)-5-fluoropicolinamide] | 4 | > 30000 | 112 | 9 | – |
| CCCn1cc(-c2ccc(F)c(C3(C)CC4(CCOCC4)OC(N)=N3)c2)cn1 (centres unmarked) [Compound 8-107, 4-(2-fluoro-5-(1-propyl-1H-pyrazol-4-yl)phenyl)-4-methyl-1,9-dioxa-3-azaspiro[5.5]undec-2-en-2-amine] | 1680 | 20800 | 34100 | 1720 | – |
| C[C@@]1(c2cc(NC(=O)c3ccc(Br)cn3)ccc2F)CC2(CCC(F)(F)CC2)OC(N)=N1 [Compound 9-136, (S)—N-(3-(2-amino-9,9-difluoro-4-methyl-1-oxa-3-azaspiro[5.5]undec-2-en-4-yl)-4-fluorophenyl)-5-bromopicolinamide] | 7 | > 30000 | 50 | – | 8.9 |
| Cc1nc(C(=O)Nc2ccc(F)c([C@]3(C)CC4(CCC4)OC(N)=N3)c2)co1 [Compound 9-138, (S)—N-(3-(6-amino-8-methyl-5-oxa-7-azaspiro[3.5]non-6-en-8-yl)-4-fluorophenyl)-2-methyloxazole-4-carboxamide] | 11 | > 30000 | 299 | 23 | – |
| CC#Cc1cncc(-c2cc([C@]3(C)CC4(CCOCC4)OC(N)=N3)sc2C)c1 [Compound 8-108, (S)-4-methyl-4-(5-methyl-4-(5-(prop-1-ynyl)pyridin-3-yl)thiophen-2-yl)-1,9-dioxa-3-azaspiro[5.5]undec-2-en-2-amine] | 17.5 | 9320 | 1120 | 485 | – |
| CC1(c2cc(NC(=O)c3ccc(C#N)cn3)ccc2F)N=C(N)OC2(CCC2)C1(F)F (centres unmarked) [Compound 9-161, N-(3-(6-amino-9,9-difluoro-8-methyl-5-oxa-7-azaspiro[3.5]non-6-en-8-yl)-4-fluorophenyl)-5-cyanopicolinamide] | 13.5 | > 30000 | 66 | 38 | – |

The next lines start with results.

| IC50 [1] [nM] | IC50 [3] [nM] | IC50 [4] [nM] | Structure (SMILES) | IC50 [2, 5] [nM] | IC50 [2] [nM] |
| --- | --- | --- | --- | --- | --- |
| 9.7 | > 30000 | 5 | C[C@@]1(c2cc(NC(=O)c3ccc(Cl)cn3)ccc2F)CC2(CCOCC2)SC(N)=N1 [Compound 9-151, (S)—N-(3-(2-amino-4-methyl-9-oxa-1-thia-3-azaspiro[5.5]undec-2-en-4-yl)-4-fluorophenyl)-5-chloropicolinamide] | 0.4 | – |
| > 7500 | > 30000 | 51800 | C[C@]1(c2cc(NC(=O)c3ccc(F)cn3)ccc2F)CC2(CCC2)SC(N)=N1 [Compound 9-143, (R)—N-(3-(6-amino-8-methyl-5-thia-7-azaspiro[3.5]non-6-en-8-yl)-4-fluorophenyl)-5-fluoropicolinamide] | 6220 | – |
| 29 | > 30000 | 366 | CC1(c2cc(NC(=O)c3ccc(F)cn3)ccc2F)CC2(CCC2)OC(N)=N1 (centres unmarked) [Compound 9-125, N-(3-(6-amino-8-methyl-5-oxa-7-azaspiro[3.5]non-6-en-8-yl)-4-fluorophenyl)-5-fluoropicolinamide] | 67 | – |
| 8 | 15600 | 29 | CC1(c2cc(NC(=O)c3ccc(F)cn3)ccc2F)CC2(CCOCC2)SC(N)=N1 (centres unmarked) [Compound 9-147, N-(3-(2-amino-4-methyl-9-oxa-1-thia-3-azaspiro[5.5]undec-2-en-4-yl)-4-fluorophenyl)-5-fluoropicolinamide] | < 4 | – |
| 8 | > 30000 | 27 | C[C@@]1(c2cc(NC(=O)c3ccc(F)cn3)ccc2F)CC2(CCC2)SC(N)=N1 [Compound 9-144, (S)—N-(3-(6-amino-8-methyl-5-thia-7-azaspiro[3.5]non-6-en-8-yl)-4-fluorophenyl)-5-fluoropicolinamide] | 9 | – |
| 11 | > 30000 | 321 | C[C@@]1(c2cc(NC(=O)c3ccc(F)cn3)ccc2F)CC2(CCC2)OC(N)=N1 [Compound 9-126, (S)—N-(3-(6-amino-8-methyl-5-oxa-7-azaspiro[3.5]non-6-en-8-yl)-4-fluorophenyl)-5-fluoropicolinamide] | 80 | – |
